According to the NIST ThermoML archive (doi:10.1016/j.fluid.2015.05.043):
± gives the expanded uncertainty stated by the source.

Details: 298.15 K; 101.33 kPa; Liquid; Alternating current cell with electrodes

O [water]
electrical conductivity: 0.000129 ± 1e-06 S/m
